Data set [1] addresses T1, 5-HT2A (Homo sapiens, UniProt P28223). As to the kind of experiment: 5-HT2 Gq-Dissociation BRET assay. The class given is cell-based. The conditions noted are these: for Emax: read-out: % efficacy vs 5-HT@ 100%, 5-HT2A; for IC50: HEK293T cells, 1 hour at 37° C. On the set-up: expressed in transfected cells; host or cells: HEK293T. Background: BRET reads energy transfer from a luciferase to a nearby fluorophore.

Data set [2] has as its target T2, 5-HT2C (Homo sapiens, UniProt P28335).
T2 sequence (P28335 33-458): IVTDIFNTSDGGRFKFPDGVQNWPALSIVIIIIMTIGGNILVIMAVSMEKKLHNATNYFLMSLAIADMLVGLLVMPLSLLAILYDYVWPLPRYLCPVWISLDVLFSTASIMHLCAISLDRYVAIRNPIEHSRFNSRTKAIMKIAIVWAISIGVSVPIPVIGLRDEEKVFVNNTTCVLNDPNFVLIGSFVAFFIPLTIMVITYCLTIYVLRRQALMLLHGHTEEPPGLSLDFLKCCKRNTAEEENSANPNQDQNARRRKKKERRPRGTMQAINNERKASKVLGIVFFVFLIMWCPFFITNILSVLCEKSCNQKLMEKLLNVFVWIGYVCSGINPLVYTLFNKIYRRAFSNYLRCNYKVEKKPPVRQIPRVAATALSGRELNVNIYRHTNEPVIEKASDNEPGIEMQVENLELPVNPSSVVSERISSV
As to the kind of experiment: cell-based. Also on record: expressed in transfected cells; host or cells: HEK293T. The conditions noted are these: for Emax: read-out: % efficacy vs 5-HT@ 100%, 5-HT2C; for IC50: HEK293T cells, 1 hour at 37° C., read-out: IC50 nM 5-HT2 Gq Dissociation BRET assay, 5-HT2C.

In data set [3] the target is T3, 5-HT2B (Homo sapiens, UniProt P41595). As to the kind of experiment: cell-based. The class given is cell-based. The note with it: for Emax: 1 h, read-out: % efficacy vs 5-HT@ 100%, 5-HT2B; for IC50: HEK293T cells, 1 hour at 37° C., read-out: IC50 nM 5-HT2 Gq Dissociation BRET assay, 5-HT2B. Also on record: expressed in transfected cells; host or cells: HEK293T.
T3 sequence (P41595 whole entry): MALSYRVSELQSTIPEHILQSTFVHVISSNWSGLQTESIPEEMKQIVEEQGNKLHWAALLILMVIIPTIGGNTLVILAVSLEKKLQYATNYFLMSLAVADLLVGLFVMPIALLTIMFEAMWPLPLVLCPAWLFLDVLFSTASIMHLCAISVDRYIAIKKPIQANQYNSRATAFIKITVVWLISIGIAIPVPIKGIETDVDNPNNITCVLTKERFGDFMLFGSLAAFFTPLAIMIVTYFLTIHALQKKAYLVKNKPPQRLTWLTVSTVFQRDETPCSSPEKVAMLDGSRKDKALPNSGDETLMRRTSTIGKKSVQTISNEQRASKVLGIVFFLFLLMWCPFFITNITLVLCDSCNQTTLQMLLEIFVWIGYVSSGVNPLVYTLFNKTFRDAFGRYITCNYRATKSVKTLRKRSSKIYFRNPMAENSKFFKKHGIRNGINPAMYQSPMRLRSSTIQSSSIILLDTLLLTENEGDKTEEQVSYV
Data set [4] has as its target T2, 5-HT2C. The conditions noted are these: read-out: agonist potency at human 5-HT2C receptor; cited from earlier work.
A further data set relates to patients. The note with it: cited from earlier work.
The target in another data set is T4, 5-HT3 (Homo sapiens, UniProt P46098).
T4 sequence (P46098 24-478): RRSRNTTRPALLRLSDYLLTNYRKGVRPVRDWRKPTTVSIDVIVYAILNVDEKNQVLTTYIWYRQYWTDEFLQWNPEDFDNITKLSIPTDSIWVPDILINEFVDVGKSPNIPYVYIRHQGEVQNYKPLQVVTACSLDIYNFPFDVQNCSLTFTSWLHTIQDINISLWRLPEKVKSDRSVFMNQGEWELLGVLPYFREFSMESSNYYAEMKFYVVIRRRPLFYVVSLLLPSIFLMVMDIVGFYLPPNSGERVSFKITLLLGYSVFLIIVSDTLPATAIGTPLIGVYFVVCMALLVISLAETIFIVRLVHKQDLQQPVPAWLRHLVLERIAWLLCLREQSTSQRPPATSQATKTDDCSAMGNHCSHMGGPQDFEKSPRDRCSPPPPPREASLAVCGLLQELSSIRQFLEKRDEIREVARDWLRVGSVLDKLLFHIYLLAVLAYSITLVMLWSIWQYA
The note with it: read-out: Ki 5-HT3; cited from earlier work.

Data set [5] has as its target T1, 5-HT2A. The note with it: relative to serotonin at 100%; cited from earlier work.
For the next data set, the system named is dopamine receptors. The conditions noted are these: cited from earlier work.
Data set [6] concerns the target T3, 5-HT2B. The note with it: relative to serotonin at 100%; cited from earlier work.

Structures are written as SMILES. pEC50, pIC50, pKi: −log10 of the molar value. Counter-ions that a name gives are not always drawn. Like-named read-outs stand apart in the source and are kept apart here. Where only a bound is given, the exact number is not on record here.

T1 sequence (P28223 whole entry): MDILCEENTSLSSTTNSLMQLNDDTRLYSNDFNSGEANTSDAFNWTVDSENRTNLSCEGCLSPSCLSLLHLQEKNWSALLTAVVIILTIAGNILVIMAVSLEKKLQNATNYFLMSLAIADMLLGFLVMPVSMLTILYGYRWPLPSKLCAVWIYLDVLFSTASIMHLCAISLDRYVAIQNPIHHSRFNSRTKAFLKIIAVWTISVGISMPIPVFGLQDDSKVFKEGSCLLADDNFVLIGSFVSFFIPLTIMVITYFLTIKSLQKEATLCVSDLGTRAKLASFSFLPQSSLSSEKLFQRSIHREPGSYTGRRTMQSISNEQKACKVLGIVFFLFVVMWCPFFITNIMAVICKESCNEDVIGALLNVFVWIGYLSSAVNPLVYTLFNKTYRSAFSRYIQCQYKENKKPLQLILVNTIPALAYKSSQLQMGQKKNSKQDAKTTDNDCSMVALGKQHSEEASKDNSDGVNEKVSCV

For the compound `CN(C)CCc1cn(C)c2cccc(O)c12` [Example 1, 3-(2-(dimethylamino)ethyl)-1-methyl-1H-indol-4-ol, reference compound], the pEC50 is ~7.07 at 5-HT2A [1] (found by the inventors, read-out: potency at 5-HT2A receptors) and ~8.00 at 5-HT2C [2] (found by the inventors, read-out: functional potency at human 5-HT2C receptors).
Turning to `CN(C)CCc1cn(C)c2cccc(O)c12` [Example 1, 3-(2-(dimethylamino)ethyl)-1-methyl-1H-indol-4-ol], the Emax on 5-HT2A [1] turned out to be 73%; on 5-HT2B [3], 40%; at 5-HT2C [2], 92%.
For orientation: IC50 means the concentration that gives 50% inhibition. As for `CN(C)CCc1cn(CC(F)F)c2cccc(O)c12` [Example 3, 1-(2,2-difluoroethyl)-3-(2-(dimethylamino)ethyl)-1H-indol-4-ol], on 5-HT2A [1], 188 nM corresponded to half-maximal inhibition (IC50) and the Emax worked out at 48%. In addition, the “5-HT2 Gq Dissociation BRET assay, 5-HT2B, activity class” value (“5-HT2 Gq Dissociation BRET assay” for short) on 5-HT2B [3] (Not Active) is recorded as “Not Active”. On 5-HT2C [2], the half-inhibitory concentration (IC50) stood at 2.7 nM and the Emax came to 80%.
In the case of `CCCn1cc(CCN(C)C)c2c(O)cccc21` [Example 4, 3-(2-(dimethylamino)ethyl)-1-propyl-1H-indol-4-ol], on 5-HT2A [1], half-maximal inhibition (IC50) required 1150 nM and the Emax worked out at 37%. Moreover, the “5-HT2 Gq Dissociation BRET assay” value at 5-HT2B [3] (Not Active) is “Not Active”. For the same compound, at 5-HT2C [2], the IC50 turned out to be 3 nM and the Emax was 67%.
Usually pIC50 stands for the IC50 on a negative log10 scale, so that one unit is a factor of ten. `CCCCn1cc(CCN(C)C)c2c(O)cccc21` [Example 6, 1-butyl-3-(2-(dimethylamino)ethyl)-1H-indol-4-ol, reference compound]: the pEC50 at 5-HT2C [4] is ~6.22. Also, on 5-HT2A [1], the concentration for half-maximal inhibition (IC50) came to 1800 nM and the Emax was 18%. Moreover, the “5-HT2 Gq Dissociation BRET assay” value at 5-HT2B [3] is listed as “Not Active”. Besides, on 5-HT2C [2], the pIC50 is 8.79 and the Emax worked out at 48%.
With `CN(C)CCc1cn(CC2CC2)c2cccc(O)c12` [Example 8, 1-(cyclopropylmethyl)-3-(2-(dimethylamino)ethyl)-1H-indol-4-ol], on 5-HT2A [1], the IC50 came out at 28 nM and the Emax is 29%. Also, on 5-HT2B [3] (Not Active), the “5-HT2 Gq Dissociation BRET assay” value was “Not Active”. On 5-HT2C [2], the half-inhibitory concentration (IC50) is 0.12 nM and the Emax stood at 50%.
As to `CN(C)CCc1cn(C2CCC2)c2cccc(O)c12` [Example 9, 1-cyclobutyl-3-(2-(dimethylamino)ethyl)-1H-indol-4-ol], at 5-HT2A [1], the half-inhibitory concentration (IC50) turned out to be 4050 nM and the Emax was determined as 53%. The “5-HT2 Gq Dissociation BRET assay” value at 5-HT2B [3] (Not Active) was “Not Active”. Moreover, at 5-HT2C [2], the IC50 is 3 nM and the Emax turned out to be 44%.
As for `CN(C)CCc1cn(C2COC2)c2cccc(O)c12` [Example 10, 3-(2-(dimethylamino)ethyl)-1-(oxetan-3-yl)-1H-indol-4-ol], on 5-HT2A [1], inhibition was half-maximal at 4000 nM (IC50) and the Emax worked out at 50%. Also, the “5-HT2 Gq Dissociation BRET assay” value on 5-HT2B [3] (Not Active) is recorded as “Not Active”. Further, on 5-HT2C [2], the IC50 worked out at 1070 nM and the Emax amounted to 60%.
With `CCN(C)CCc1cn(C)c2cccc(O)c12` [Example 12, 3-(2-(ethyl(methyl)amino)ethyl)-1-methyl-1H-indol-4-ol hydrochloride], the half-inhibitory concentration (IC50) against 5-HT2A [1] amounted to 133 nM; at 5-HT2B [3], 83 nM; on 5-HT2C [2], 2.8 nM. For the same compound, the Emax was found to be 66% on 5-HT2A [1], 44% on 5-HT2B [3] and 84% on 5-HT2C [2].
For the compound `CC(C)N(C)CCc1cn(C)c2cccc(O)c12` [Example 13, 3-(2-(isopropyl(methyl)amino)ethyl)-1-methyl-1H-indol-4-ol hydrochloride], the 50% inhibitory concentration (IC50) turned out to be 112 nM against 5-HT2A [1], 42.1 nM at 5-HT2B [3] and 63.5 nM at 5-HT2C [2]. In addition, the Emax on 5-HT2A [1] amounted to 85%; on 5-HT2B [3] it was 83%; on 5-HT2C [2], 105%.
In the case of `CC(C)N(CCc1cn(C)c2cccc(O)c12)C(C)C` [Example 14, 3-(2-(diisopropylamino)ethyl)-1-methyl-1H-indol-4-ol hydrochloride], the IC50 against 5-HT2A [1] was 253 nM; on 5-HT2B [3], 49.1 nM; at 5-HT2C [2], 393 nM. Further, the Emax at 5-HT2A [1] was 92%; at 5-HT2B [3] it was 68%; on 5-HT2C [2], 98%.
For the compound `CN(CCc1cn(C)c2cccc(O)c12)CC1CC1` [Example 16, 3-(2-((cyclopropylmethyl)(methyl)amino)ethyl)-1-methyl-1H-indol-4-ol hydrochloride], the IC50 came out at 140 nM against 5-HT2A [1], 0.245 nM on 5-HT2B [3] and 14.9 nM at 5-HT2C [2]. Also, the Emax at 5-HT2A [1] amounted to 55%; at 5-HT2B [3], 19%; at 5-HT2C [2], 54%.
As to `CN(CCc1cn(C)c2cccc(O)c12)CC(F)F` [Example 17, 3-(2-((2,2-difluoroethyl)(methyl)amino)ethyl)-1-methyl-1H-indol-4-ol hydrochloride], the concentration for half-maximal inhibition (IC50) on 5-HT2A [1] was found to be 8400 nM; at 5-HT2B [3], 376 nM; at 5-HT2C [2], 833 nM. For the same compound, the Emax at 5-HT2A [1] is 54%; at 5-HT2B [3], 24%; on 5-HT2C [2], 66%.
Turning to `CCN(CC)CCc1cn(C)c2cccc(O)c12` [Example 18, 3-(2-(diethylamino)ethyl)-1-methyl-1H-indol-4-ol hydrochloride], the figures for the IC50 at 5-HT2A [1], at 5-HT2B [3] and on 5-HT2C [2] were 241 nM, 64 nM and 31 nM, respectively. Further, the Emax stood at 60% at 5-HT2A [1], 56% on 5-HT2B [3] and 70% on 5-HT2C [2].
For the compound `Cn1cc(CCNCC2CC2)c2c(O)cccc21` [Example 21, 3-(2-((cyclopropylmethyl)amino)ethyl)-1-methyl-1H-indol-4-ol hydrochloride], the IC50 against 5-HT2A [1] was 497 nM; at 5-HT2B [3] it was 328 nM; on 5-HT2C [2], 15 nM. The results for the Emax at 5-HT2A [1], at 5-HT2B [3] and on 5-HT2C [2] were 61%, 46% and 40%, respectively.
Regarding `Cn1cc(CCNCC(F)F)c2c(O)cccc21` [Example 22, 3-(2-((2,2-difluoroethyl)amino)ethyl)-1-methyl-1H-indol-4-ol hydrochloride], the values for the IC50 against 5-HT2A [1], at 5-HT2B [3] and on 5-HT2C [2] were 4200 nM, 1420 nM and 1890 nM, respectively. The Emax on 5-HT2A [1] was determined as 78%; on 5-HT2B [3] it was 75%; on 5-HT2C [2] it was 82%.
As to `COc1ccccc1CNCCc1cn(C)c2cccc(O)c12` [Example 24, 3-(2-((2-methoxybenzyl)amino)ethyl)-1-methyl-1H-indol-4-ol hydrochloride], the IC50 was 10 nM on 5-HT2A [1], 8.3 nM on 5-HT2B [3] and 1.6 nM on 5-HT2C [2]. Besides, the Emax on 5-HT2A [1] stood at 93%; at 5-HT2B [3], 56%; at 5-HT2C [2] it was 115%.
As to `COc1ccccc1CN(C)CCc1cn(C)c2cccc(O)c12` [Example 25, 3-(2-((2-methoxybenzyl)(methyl)amino)ethyl)-1-methyl-1H-indol-4-ol hydrochloride], the half-inhibitory concentration (IC50) at 5-HT2A [1] came out at 770 nM; on 5-HT2B [3], 4000 nM; on 5-HT2C [2], 2.4 nM. Also, the Emax on 5-HT2A [1] worked out at 39%; on 5-HT2B [3] it was 14%; at 5-HT2C [2], 70%.
With `C[C@H]1CNCCc2ccc(Cl)cc21` [Locaserin], in the data set on patients, the “risk of cardiac valvulopathy” value is reported as “no increased risk of cardiac valvulopathy”.
The term pKi denotes the negative decadic logarithm of the Ki, by convention in mol/L. For `CN(C)CCc1c[nH]c2cccc(O)c12` [Psilocin, psilocin], the pKi at 5-HT3 was < 5.00. Also, the “Efficacy (in parentheses), 5-HT2A” value at 5-HT2A [5] is listed as 43%. Moreover, in the data set with dopamine receptors, the “effect on dopamine receptors” value is reported as “no significant effect on dopamine receptors”. Moreover, the “Efficacy (in parentheses), 5-HT2B” value on 5-HT2B [6] is 45%. At 5-HT2B [3], the “% efficacy vs 5-HT@ 100%, 5-HT2B” value is 1.07 nM (63%).
